One assay concerns the target T1, human PKCι (Homo sapiens, UniProt P41743).
T1 sequence (P41743 1-596): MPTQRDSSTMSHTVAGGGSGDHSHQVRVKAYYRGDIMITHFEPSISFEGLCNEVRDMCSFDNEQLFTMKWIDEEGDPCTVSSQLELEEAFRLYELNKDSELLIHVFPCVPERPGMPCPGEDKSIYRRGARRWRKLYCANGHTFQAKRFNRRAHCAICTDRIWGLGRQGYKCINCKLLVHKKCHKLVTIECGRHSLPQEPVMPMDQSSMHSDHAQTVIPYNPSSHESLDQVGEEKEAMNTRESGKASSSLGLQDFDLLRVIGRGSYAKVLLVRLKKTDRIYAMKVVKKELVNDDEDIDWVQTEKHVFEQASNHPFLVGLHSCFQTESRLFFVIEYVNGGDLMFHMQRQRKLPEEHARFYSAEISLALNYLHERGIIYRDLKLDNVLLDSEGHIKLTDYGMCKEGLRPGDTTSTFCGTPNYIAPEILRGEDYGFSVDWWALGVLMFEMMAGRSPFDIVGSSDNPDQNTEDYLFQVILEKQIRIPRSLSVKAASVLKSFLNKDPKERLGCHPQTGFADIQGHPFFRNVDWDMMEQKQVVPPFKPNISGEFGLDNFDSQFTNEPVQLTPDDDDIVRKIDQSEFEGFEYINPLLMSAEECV
Briefly: PKC isoforms based HTRF KinEASE-STK assay, PKCι. The format is biochemical. As to conditions: 87.5 μM ATP in substrate mix, 70 min. The text has this: (§1) The purpose of this assay is to evaluate the inhibitory activity of compounds on various PKC isoforms. It has been reported that perturbations in vascular cell homeostasis caused by different PKC isoforms (PKC-α, β1/2, and PKC-δ) are linked to the development of pathologies affecting large vessel (atherosclerosis, cardiomyopathy) and small vessel (retinopathy, nephropathy, and neuropathy) complications. Geraldes, P. and King, G. L., “Activation of Protein Kinase C Isoforms and Its Impact on Diabetic Complications”, Cir.
(§2) Effects of a test compound on the kinase activity of PKCα, β2, δ, ε, ι, and ζ, are determined using a HTRF KINEASE™-STK assay kit (Cisbio) in accordance with the protocol provided by the vendor. It is a general method for measuring Serine/Threonine kinase activities using kinase substrates and a universal detection system. In the current protocol, biotinilated STK1provided in the assay kit is used as the substrate that can be phosphorylated by any PKC isoform. The HTRF KINEASE™-STK assay kit format involves the two steps (Enzymatic step and Detection step) described below. First, the kinase phosphorylates the substrate in the presence of ATP. Second, the detection reagents provided in the assay kit recognize the phosphorylated substrate.
For orientation: TR-FRET usually uses a lanthanide donor and a delayed reading to cut background.

For a further assay, the target named is T2, human PKCζ (Homo sapiens, UniProt Q05513).
T2 sequence (Q05513 1-592): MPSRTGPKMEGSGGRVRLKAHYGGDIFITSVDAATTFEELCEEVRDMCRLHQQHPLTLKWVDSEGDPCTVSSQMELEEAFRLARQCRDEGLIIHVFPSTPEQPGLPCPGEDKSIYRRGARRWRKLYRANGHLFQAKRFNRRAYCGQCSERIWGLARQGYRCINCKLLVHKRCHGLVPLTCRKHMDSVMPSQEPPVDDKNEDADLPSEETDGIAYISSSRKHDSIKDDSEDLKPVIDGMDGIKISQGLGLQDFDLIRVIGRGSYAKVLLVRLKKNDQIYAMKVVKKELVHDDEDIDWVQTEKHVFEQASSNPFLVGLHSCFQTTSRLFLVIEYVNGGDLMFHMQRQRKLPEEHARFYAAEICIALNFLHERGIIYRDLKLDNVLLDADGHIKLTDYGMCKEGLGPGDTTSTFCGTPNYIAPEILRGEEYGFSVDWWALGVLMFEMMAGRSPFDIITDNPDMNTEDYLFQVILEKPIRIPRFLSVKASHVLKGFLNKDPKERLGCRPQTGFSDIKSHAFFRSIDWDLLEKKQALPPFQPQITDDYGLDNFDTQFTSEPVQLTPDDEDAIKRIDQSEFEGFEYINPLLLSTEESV
Briefly: PKC isoforms based HTRF KinEASE-STK assay, PKCζ. The class given is biochemical. As to conditions: 10 μM ATP in substrate mix, 70 min.
From the text: as §1, §2

For the next assay, the system named is db/db mice. Briefly: Efficacy animal model of diabetic nephropathy (albuminuria, uninephrectomized db/db mice). The class given is in vivo, mouse. Conditions: oral gavage twice a day. The text has this: The purpose of this assay is to analyze compound efficacy in a mouse model of diabetic nephropathy. The earliest clinical manifestation of diabetic nephropathy is albuminuria, leakage of albumin in the urine. Because diabetic nephropathy can be present without any symptoms, early diagnosis is critical so that treatment can be started. The key test for early diagnosis of diabetic nephropathy involves checking for the presence of albuminuria. Thus, if a compound reduces albumin levels in the urine in a diabetic patient, it would likely indicate efficacy of the compound in the treatment of diabetic nephropathy. To model diabetic nephropathy, a combination of genetically driven type 2 diabetes and uninephrectomy is utilized. Six week-old db/db mice (genetic strain: C57 BL KsJ, ChemPartner, Shanghai) receive standard rodent chow and water ad libitum. The left kidney is removed under anesthesia with 0.6% sodium pentobarbital at 60 mg/kg body weight (10 μL/g i.p.). Seven days after surgery, urine is collected for 24 h in a metabolic cage to measure albuminuria levels and blood is collected by tail snip to determine glucose levels. For compound treatment, the animals are randomized based on 24-h albuminuria, blood glucose, and body weight. A test compound is dissolved in 4% DMSO (aqueous) and administered twice a day by oral gavage. […] During the treatment period, albuminuria is analyzed monthly. […]

Each structure is given as a SMILES string.

Usually IC50 stands for the concentration at which inhibition is half-maximal. One may read the ED50 as the midpoint of the dose-response relation. Consider `C[C@@H]1CN(C(=O)c2cc(-c3c(F)cc(O)cc3F)cc3cnsc23)C[C@H](C)N1.Cl` [Example 2, 4-(7-{[(3R,5 S)-3,5-DIMETHYLPIPERAZIN-1-YL]CARBONYL}-1,2-BENZOTHIAZOL-5-YL)-3,5-DIFLUOROPHENOL HYDROCHLORIDE], for which the values for the 50% inhibitory concentration (IC50) against human PKCι and against human PKCζ were greater than 20 µM and roughly 15.5 µM, respectively. Further, the ED50 with db/db mice (Mus musculus, uninephrectomized db/db mice, read-out: ED50, reduction of albuminuria) was roughly 25.3 mg/kg. The “actual mean levels of albumin in the urine (collected during 24 hours)” value in the assay with db/db mice (db/db mice, dose of 30 mg/kg) was determined as 85.0 ± 6.9 µg.
